According to US4558144A, “Volatile metal complexes” (Corning Glass Works, priority 1984, dated 1985):

Columns and labels:
[1] = Thermogravimetric analysis (TGA), volatility; format: physicochemical; conditions: for T1/2 volatility: Table III, comparative data; for volatilization behavior / decomposition in TGA / T1/2 (temperature at which one-half of the sample has been evaporated): 20 mg sample, 10° C./min, argon; for T1/2 (temperature at which one-half of the sample has been evaporated): TGA
Procedure: A thermogravimetric analysis (TGA) of the product was carried out on a 20 mg sample of the material, heated at a rate of 10° C./min under an argon atmosphere. A thermogravimetric curve resulting from such a study, identified as "TGA-Mg(hfa)2.1,2-DME", is reproduced in FIG. 1 of the drawing.

Vapor pressure = format: physicochemical
[2] = Thermal stability, heating in evacuated/sealed ampoules at 200° C. for 24 hours; format: physicochemical; conditions: ampoule, compared with corresponding THF adduct
Procedure: The thermal stability of Mg(hfa)2.1,2-DME is evidenced not only by the TGA data set forth in FIG. 1, but also by investigations as to the extent and nature of the decomposition of Mg(hfa)2.1,2-DME after prolonged heating at temperatures in the 100°-200° C. range.
As in the case of the magnesium complex, the thermal stability of Zn(hfa)2.1,2-DME is evidenced not only by the observed rapid and complete TGA volatilization behavior shown in FIG. 2, but also by measuring residual gas pressure after heating a sample of the material in a sealed ampoule at 200° C. for 24 hours.

[3] = at 200° C.; EP No. 0103446; cited from earlier work

Structure (SMILES) | T1/2 volatility [1] | volatilization behavior / decomposition in TGA ([1]; in words) | T1/2 (temperature at which one-half of the sample has been evaporated) [1] | residual pressure after heating [2] | sample discoloration after heating [2] | further results
O=C(C=C([O-])C(F)(F)F)C(F)(F)F.O=C(C=C([O-])C(F)(F)F)C(F)(F)F.[Zn+2].c1ccc(-c2ccccn2)nc1 [Zn(hfa)2.2,2'-bipyridine, reference compound] | 295 °C | – | – | – | – | –
O=C(C=C([O-])C(F)(F)F)C(F)(F)F.O=C(C=C([O-])C(F)(F)F)C(F)(F)F.[Mg+2].c1cnc2c(c1)ccc1cccnc12 [Mg(hfa)2.1,10-phenanthroline, reference compound] | 295 °C | – | – | – | – | –
O=C(C=C([O-])C(F)(F)F)C(F)(F)F.O=C(C=C([O-])C(F)(F)F)C(F)(F)F.[Zn+2].c1cnc2c(c1)ccc1cccnc12 [Zn(hfa)2.1,10-phenanthroline, reference compound] | 310 °C | – | – | – | – | –
COCCOC.O=C(C=C([O-])C(F)(F)F)C(F)(F)F.O=C(C=C([O-])C(F)(F)F)C(F)(F)F.[Zn+2] [Zn(hfa)2.1,2-DME] | 162 °C | rapid and complete vaporization over a narrow range of temperatures, indicating no detectable thermal decomposition | 162 °C | lower residual pressure | less discoloration | T1/2 temperature compared with Zn(hfa)2.2THF ([1]; same TGA conditions, in words): only slightly higher than the T1/2 temperature of Zn(hfa)2.2THF; vapor pressure (Vapor pressure; at 125° C.): about 16 mm (Hg)
COCCOC.O=C(C=C([O-])C(F)(F)F)C(F)(F)F.O=C(C=C([O-])C(F)(F)F)C(F)(F)F.[Mg+2] [Mg(hfa)2.1,2-DME] | 170 °C | rapid and complete volatilization of the complex over a narrow temperature range, indicating the absence of detectable decomposition | about 170 °C | lower residual pressure | less discoloration | vapor pressure (Vapor pressure; at about 120° C.): 10 mm (Hg)
C1CCOC1.C1CCOC1.O=C(C=C([O-])C(F)(F)F)C(F)(F)F.O=C(C=C([O-])C(F)(F)F)C(F)(F)F.[Mg+2] [Mg(hfa)2.2THF, reference compound] | – | – | 180 °C | – | – | volatilization without decomposition [3]: can be volatilized without decomposition
